In article PMC8175851, “Effects of Genetic Polymorphism in CYP2D6, CYP2C19, and the Organic Cation Transporter OCT1 on Amitriptyline Pharmacokinetics in Healthy Volunteers and Depressive Disorder Patients” (Frontiers in Pharmacology, 2021):
Several values for one entry are separate records, joined by “and”; a condition that tells them apart may be missing. Identical values can stand only once. Like-named read-outs stand apart in the source and are kept apart here.

Test: Pharmacokinetics of AT and NT in healthy volunteers after a single dose of 25 mg amitriptyline
Type: in vivo, human
Settings: for AUC(0-inf) / AUC(0-t) / Cmax / Tmax / half-life: both sexes, human, plasma, po, 25 mg, single oral 25 mg AT; for AUC(0-t): read-out: AUC48h; for Cmax: read-out: Cmax
Text: In order to enrich the study sample with the less frequent functionally deficient OCT1 variants, participants were selected based on OCT1 genotype from an internal database at the Institute of Clinical Pharmacology of the University Medical Center Göttingen. All volunteers who are listed in the internal database had agreed to it and the database was approved by the ethics committee of the University of Göttingen. […] Additional subjects with heterozygous genotypes were included to provide a better understanding of the effects of specific variants and the mode of inheritance. All volunteers gave their written informed consent before participation in the study. The study was approved by the ethics committee of the University of Göttingen and the German Federal Institute for Drugs and Medical Devices (BfArM). It was registered at the clinical trials databases Clinicaltrials.gov (NCT02054299) and EudraCT (number 2012-003546-33). […] Volunteers who underwent regular drug treatments other than oral contraceptives or who suffered from any relevant chronic illness, as well as pregnant or lactating women, were not included. All subjects were healthy according to a detailed medical history, medical examination, electrocardiogram, urine status and clinical chemistry, and haematology parameters (sodium, potassium, total bilirubin, aspartate aminotransferase, alanine-aminotransferase, creatinine, C-reactive protein, thyroid-stimulating hormone, haemoglobin, erythrocyte, thrombocyte, and leucocyte counts). […] After centrifugation (13,000 rpm, 15 min, room temperature), two-thirds of the supernatant were transferred to a new reaction tube and evaporated at 40°C under nitrogen flow. The residue was reconstituted under shaking in 0.1% methanoic acid and briefly centrifuged before quantification using a Nexera UHPLC system (Shimadzu, Kyoto, Japan) coupled to an API 4000 tandem mass spectrometer (AB Sciex, Darmstadt, Germany). […] PerkinElmer, Rodgau, Germany) with a Phenomenex C18 pre-column (4 × 2 mm, Phenomenex, Aschaffenburg, Germany). […] The lower limit of quantification was 0.5 ng/ml for AT and 0.1 ng/ml for NT. […] The mass spectrometry detection parameters are listed in Supplementary Table S1. For the study in healthy volunteers, the primary endpoints were the AUCs of plasma AT and NT concentrations. Secondary endpoints were the other pharmacokinetic parameters of AT and NT, as well as heart rate, blood pressure, pupil size effects, and possible adverse events (headache, fatigue, visual or hearing impairments, restlessness, nausea, dizziness, dry mouth, tremor, as well as sensations of hypothermia and heart palpitations determined using a visual analogue scale test). Pharmacokinetic parameters were calculated by non-compartmental analysis using Phoenix 64 WinNonlin version 6.3 (Certara Inc., Princeton, NJ, United States). AUCinf of AT was calculated from the time of dosing using the linear/log trapezoidal rule and extrapolated to infinity based on the last predicted concentration and using the terminal elimination rate constant (lambda z). AUC of NT was calculated from the time of dosing until the last measurement at 48 h using the linear/log trapezoidal rule, as a decline in NT concentrations was not observed in some subjects and extrapolation to infinity thus not possible.

[1] = healthy volunteers, 0 active OCT1 alleles (n = 12)
[2] = healthy volunteers, 1 active OCT1 allele (n = 9)
[3] = healthy volunteers, 2 active OCT1 alleles (n = 14)
[4] = healthy volunteers, CYP2C19 activity score 1 (n = 5), mean
[5] = healthy volunteers, CYP2C19 activity score 1.5 (n = 2), mean
[6] = healthy volunteers, CYP2C19 activity score 2 (n = 16), mean
[7] = healthy volunteers, CYP2C19 activity score 2.5 (n = 10), mean
[8] = healthy volunteers, CYP2D6 activity 0 (n = 3), mean
[9] = healthy volunteers, CYP2D6 activity 0.5 (n = 2), mean
[10] = healthy volunteers, CYP2D6 activity 1 (n = 10), mean
[11] = healthy volunteers, CYP2D6 activity 1.5 (n = 6), mean
[12] = healthy volunteers, CYP2D6 activity 2 (n = 11), mean
[13] = healthy volunteers, CYP2D6 activity 2.5 (n = 1), mean
[14] = healthy volunteers, CYP2D6 activity 3 (n = 2), mean

In the case of CN(C)CCC=C1c2ccccc2CCc2ccccc21 [Amitriptyline, amitriptyline], the “maximum concentration of unbound AT in the portal vein (estimated)” value (based on the calculations by Ahlin et al. and Ito et al., listed as AT) is reported as 745.9 µg/L and 2.69 µM, the AUC(0-inf) (35 healthy volunteers, read-out: AUCinf (range over all volunteers)) is reported as 110 to 430 ng·h/mL and the AUC(0-t) [1] is reported as 162 ± 40.5 ng·h/mL. It also gave an AUC(0-inf) (healthy volunteers, 0 active OCT1 alleles (n = 12), read-out: AUCinf) of 199 ± 60 ng·h/mL, a Cmax [1] of 9.9 ± 3.9 ng/mL and an AUC(0-t) [2] of 184 ± 56 ng·h/mL. For the same molecule, the AUC(0-inf) (healthy volunteers, 1 active OCT1 allele (n = 9), read-out: AUCinf) was 228 ± 72.4 ng·h/mL, the Cmax [2] was 10.5 ± 3.3 ng/mL and the AUC(0-t) [3] was 194 ± 66.3 ng·h/mL. It also gave an AUC(0-inf) (healthy volunteers, 2 active OCT1 alleles (n = 14), read-out: AUCinf) of 243 ± 87.5 ng·h/mL, a Cmax [3] of 11.6 ± 4 ng/mL and an AUC(0-t) [4] of 183 ng·h/mL. The AUC(0-inf) (healthy volunteers, CYP2C19 activity score 1 (n = 5), mean, read-out: AUCinf) was 231 ng·h/mL, the Cmax [4] was 11.1 ng/mL and the AUC(0-t) [5] was 256 ng·h/mL. It also gave an AUC(0-inf) (healthy volunteers, CYP2C19 activity score 1.5 (n = 2), mean, read-out: AUCinf) of 317 ng·h/mL, a Cmax [5] of 16.2 ng/mL and an AUC(0-t) [6] of 172 ng·h/mL. For the same molecule, the AUC(0-inf) (healthy volunteers, CYP2C19 activity score 2 (n = 16), mean, read-out: AUCinf) was 210 ng·h/mL, the Cmax [6] was 10.5 ng/mL and the AUC(0-t) [7] was 171 ng·h/mL. For the same molecule, the AUC(0-inf) (healthy volunteers, CYP2C19 activity score 2.5 (n = 10), mean, read-out: AUCinf) was 211 ng·h/mL, the Cmax [7] was 9.5 ng/mL and the AUC(0-t) [8] was 236 ng·h/mL. It also gave an AUC(0-inf) (healthy volunteers, CYP2D6 activity 0 (n = 3), mean, read-out: AUCinf) of 311 ng·h/mL, a Cmax [8] of 10.9 ng/mL and an AUC(0-t) [9] of 166 ng·h/mL. For the same molecule, the AUC(0-inf) (healthy volunteers, CYP2D6 activity 0.5 (n = 2), mean, read-out: AUCinf) was 214 ng·h/mL, the Cmax [9] was 12.7 ng/mL and the AUC(0-t) [10] was 199 ng·h/mL. For the same molecule, the AUC(0-inf) (healthy volunteers, CYP2D6 activity 1 (n = 10), mean, read-out: AUCinf) was 251 ng·h/mL, the Cmax [10] was 11.9 ng/mL and the AUC(0-t) [11] was 184 ng·h/mL. The AUC(0-inf) (healthy volunteers, CYP2D6 activity 1.5 (n = 6), mean, read-out: AUCinf) was 226 ng·h/mL, the Cmax [11] was 10.3 ng/mL and the AUC(0-t) [12] was 162 ng·h/mL. The AUC(0-inf) (healthy volunteers, CYP2D6 activity 2 (n = 11), mean, read-out: AUCinf) was 196 ng·h/mL, the Cmax [12] was 10 ng/mL and the AUC(0-t) [13] was 142 ng·h/mL. The AUC(0-inf) (healthy volunteers, CYP2D6 activity 2.5 (n = 1), mean, read-out: AUCinf) was 158 ng·h/mL, the Cmax [13] was 7 ng/mL and the AUC(0-t) [14] was 130 ng·h/mL. It also gave an AUC(0-inf) (healthy volunteers, CYP2D6 activity 3 (n = 2), mean, read-out: AUCinf) of 157 ng·h/mL, a Cmax [14] of 10.2 ng/mL and a Tmax [1] of 3.4 ± 1.6 h. It also gave a half-life [1] of 20.3 ± 3.8 h, a Tmax [2] of 3.1 ± 1 h and a half-life [2] of 20.5 ± 3.9 h. The Tmax [3] was 2.9 ± 1.4 h, the half-life [3] was 21 ± 4 h and the Tmax [4] was 2.6 h. The half-life [4] was 21.6 h, the Tmax [5] was 2 h and the half-life [5] was 20.3 h. The Tmax [6] was 3.2 h, the half-life [6] was 20.1 h and the Tmax [7] was 3.6 h. The half-life [7] was 19.8 h, the Tmax [8] was 3.4 h and the half-life [8] was 23.7 h. It also gave a Tmax [9] of 2 h, a half-life [9] of 24.2 h and a Tmax [10] of 2.7 h. The half-life [10] was 21.4 h, the Tmax [11] was 3.7 h and the half-life [11] was 19.8 h.
